Experimental data as given in patent publication EP4741395A1, “NOVEL COMPOUND SENSITIVE TO NITROGEN MONOXIDE AND PHARMACEUTICAL COMPOSITION COMPRISING SAME” (Omniamed Co. Ltd, priority 2023, dated 2025).

Assays:
Raw 264.7 cell line = assay: NO scavenging activity in LPS-treated immune cells (Griess reagent); type: cell-based; conditions: Mus musculus, RAW264.7, Raw 264.7, LPS 500 ng/mL, 24 hours, read-out: NO Scavenging Activity (%) (Mean±SD)
[1] = Hematological toxicity evaluation after single oral administration (routine blood test)
[2] = HPLC analysis of nitrogen monoxide sensitivity (release of the low-molecular-weight compound); type: physicochemical; conditions: NaNO2 / sulfuric acid, 1 hour, room temperature; FIGS. 2A to 2C
Method: It was checked whether the pharmaceutical composition sensitive to nitrogen monoxide including the compound according to each of the Examples is capable of releasing a low-molecular-weight compound having pharmaceutical activity by separating a nitrogen monoxide scavenger in an environment where nitrogen monoxide is present.
A sample for HPLC analysis was prepared as follows. 28 mg of NaNO2 (0.41 mmol, 16.4 equiv) was dissolved in 0.3 mL of water, and then the mixture solution was cooled to 0°C to 5°C. After introducing 0.2 mL of sulfuric acid (0.1 mmol, 4 equiv) to the mixture solution, 12.2 mg of Compound (4) (0.025 mmol, 1 equiv), which was prepared in Example 4, dissolved in 0.2 mL of acetone was introduced thereto. The mixture solution was stirred for 1 hour at room temperature. After the reaction was finished, water and dichloromethane were introduced to the reaction solution for extraction. The organic layer was separated, then dried with magnesium sulfate, and filtered. […]
Specifically, referring to FIG. 2A, the peak of Compound (4) of Example 4, which is the pharmaceutical composition sensitive to nitrogen monoxide, was detected at 14.2 minutes. On the other hand, referring to FIG. 2B, the peak of Compound (4) disappeared in an environment where excess nitrogen monoxide is present, and a peak detected at 7.7 minutes was generated.

[3] = Efficacy on DSS induced ulcerative colitis (disease activity index); type: in vivo, mice
Method: In order to establish an ulcerative colitis model, 2.5% DSS powder was mixed with drinking water and provided ad libitum. The DSS powder-containing drinking water was supplied for 5 to 6 days of disease induction period, and after that, normal drinking water was supplied.
The administered compounds of Table 21 were administered orally once daily. Hematochezia, diarrhea and body weight loss were scored according to the criteria shown in the following Table 22, and the scores were summed to calculate a disease activity index (DAI), which is shown in FIG. 4.
Efficacy of Compound (4) on ulcerative colitis was verified in the same manner as in Experimental Example 10-1, except that Compound (4) was used instead of Compound (1), and DSS was administered until day 5, and the drug was administered from day 6.

IFN-γ = IFN-γ reduction activity in Concanavalin A-treated splenocytes (quantitative ELISA); type: cell-based, C57BL/6 mouse; conditions: Mus musculus, Splenocyte, Concanavalin A 5 µg/mL, 72 hours, read-out: IFN-γ Reduction Activity (%) (Mean±SD)
Summary of the method: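 Splenocytes from 8-week-old C57BL/6 mice at 5×10^6 cells/mL in RPMI 1640 with 10% FBS, stimulated with Concanavalin A (5 µg/mL) plus compound added concentration-dependently. Supernatant IFN-γ measured by quantitative ELISA after 72 h.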

splenocytes [4] = assay: NO scavenging activity in Concanavalin A-treated splenocytes (Griess assay); type: cell-based, C57BL/6 mouse; conditions: Mus musculus, Splenocyte, Concanavalin A 5 µg/mL, 72 hours, read-out: NO Scavenging Activity (%) (Mean±SD)
Summary of the method: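 Splenocytes from 8-week-old C57BL/6 mice at 5×10^6 cells/mL in RPMI 1640/10% FBS, stimulated with Concanavalin A (5 µg/mL) plus […] test composition added at plating. After 72 h culture, remaining NO in supernatant measured by Griess assay.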

splenocytes [5] = assay: Inhibitory activity on cell proliferation in splenocytes (CCK-8 analysis); type: cell-based, C57BL/6 mouse; conditions: Mus musculus, Splenocyte, Concanavalin A 5 µg/mL, 72 hours, read-out: Inhibitory Activity on Cell Proliferation (%) (Mean±SD)
[6] = mouse, in vivo, po, 800 mg/kg
in vivo = conditions: male, C57BL/6, mouse, in vivo, po
Method: Specifically, the experimental animals were twelve six-week-old C57BL/6 male mice. The experimental animals were housed in polycarbonate cages in groups of four, and had free access to food and water. The animal housing room was maintained at a temperature of 20±1°C and humidity of about 50±5%, with a constant 12-hour light/dark cycle. The experimental animals were acclimated to the animal room environment for one week, and then randomly divided into three groups of four animals each based on body weight.

[7] = Efficacy on collagen-induced rheumatoid arthritis (arthritis score); type: in vivo, DBA/1 male mice
Method: (§1) The experimental animals were 30 8-week-old DBA/1 male mice. […] The number of normal mice was set to five in order to minimize the number of experimental animals. The group administered with Compound (1) consisted of 5 to 6 mice, a minimal number required to obtain statistically meaningful data given the limited amount of the drug.
(§2) In order to establish a rheumatoid arthritis model, 100 µL of a mixture solution in which 2 mg/mL of chick type II collagen and 1 mg/mL of Complete Freund's Adjuvant (CFA) were mixed in a ratio of 1:1 was administered intradermally to each of the mouse tails. After 19 days, 100 µL of an emulsion in which 2 mg/mL of chick type II collagen and Incomplete Freund's Adjuvant (IFA) were mixed in a ratio of 1:1 was administered intradermally to each of the mouse tails.
The test substances of Table 23 were administered orally every day according to the drug dosing period and dosing frequency. As for the rheumatoid arthritis score (arthritis score), the score of each of the four paws was quantified according to the criteria shown in the following Table 24, and the individual scores were summed to generate the final score.
as §1, with “31” for “30”, “(11)” for “(1)”, “5” for “5 to 6”, “drug. Each of the remaining groups consisted of 7 mice, with two extra mice added to account for experimental error.” for “drug.”
as §2
Oral administration was conducted daily according to the dose, dosing frequency and dosing period of Table 25. Based on the criteria shown in Table 24, rheumatoid arthritis score for the four paws were quantified and summed to generate the score.

[8] = 200 mg/kg single oral dose, mice, two days after administration
[9] = 800 mg/kg single oral dose, mice, two days after administration

Structure (SMILES) | activity at 10 µM (Raw 264.7 cell line) | hematological toxicity responses ([1]; single oral dose 200 mg/kg and 800 mg/kg, compared with the normal group) | release of the low-molecular-weight compound in the presence of excess nitrogen monoxide (HPLC) [2] | efficacy in alleviating ulcerative colitis compared to tofacitinib ([3]; 25 mg/kg oral once daily, FIGS. 4 and 5) | efficacy on disease activity index (DAI) ([3]; DSS until day 5, drug from day 6, day 9 of the test, FIG. 5) | activity at 10 µM (IFN-γ) | activity at 10 µM (splenocytes [4]) | inhibition at 10 µM (splenocytes [5]) | WBC Differential Counting (LYM) (% of Normal) [1, 8] | WBC Differential Counting (NEU) (% of Normal) [1, 8] | WBC (% of Normal) [1, 9] | WBC Differential Counting (LYM) (% of Normal) [1, 9] | WBC Differential Counting (NEU) (% of Normal) [1, 9] | hematological toxicity [6] | MTD at 4 days (in vivo) | rheumatoid arthritis-alleviating efficacy (arthritis score) ([7]; 10 mg/kg oral twice daily (BID), day 39 (p<0.05) and day 40 (p<0.01), FIG. 7) | rheumatoid arthritis-alleviating efficacy (arthritis score) ([7]; 40 mg/kg oral once daily, from day 33 after disease induction (p<0.01) to the end, FIG. 6)
C[C@@H]1CCN(C(=O)CC#N)C[C@@H]1N(C)c1ncnc2c1ccn2C(=O)Nc1ccc(N(C)C)cc1N [Example 4, N-(2-amino-4-(dimethylamino)phenyl)-4-(((3R,4R)-1-(2-cyanoacetyl)-4-methylpiperidin-3-yl)(methyl)amino)-7H-pyrrolo[2,3-d]pyrimidine-7-carboxamide] | 68.7 ± 0.74% | No hematological toxicity responses were observed | reacted with excess nitrogen monoxide to release tofacitinib | comparable or more superior efficacy | statistically significant efficacy was observed | 98.9 ± 0.03% | 91 ± 0.01% | 79.5 ± 6.67% | – | – | – | – | – | – | – | – | –
C[C@@H]1CCN(C(=O)CC#N)C[C@@H]1N(C)c1ncnc2[nH]ccc12 [Tofacitinib, tofacitinib] | – | – | – | – | – | – | – | – | 81.1±31.3 % of Normal | 68.3±15.7 % of Normal | 62.1±4.7 % of Normal | 61.2±4.6 % of Normal | 56.4±7.9 % of Normal | hematological toxicity was observed | 400 mg/kg | Statistically significant rheumatoid arthritis-alleviating efficacy was observed | statistically significant rheumatoid arthritis-alleviating efficacy was observed
